The values that follow come from patent US20260176249A1, “PROTEIN KINASE INHIBITOR, PREPARATION METHOD THEREFOR, AND APPLICATION THEREOF” (SHANDONG LUYE PHARMACEUTICAL CO., LTD., priority 2021, published 2026).

Data set [1] can be described thus: Metabolic stability in mouse liver microsomes. The format is in vitro ADME. The conditions noted are these: for CLint scaled at 1 µM / half-life at 1 µM / microsomal CLint at 1 µM: mouse; for CLint scaled at 1 µM / half-life at 1 µM: pH 7.4; for microsomal CLint at 1 µM: pH 7.4, read-out: CLint(mic). Put shortly:
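Compounds incubated at 37 °C with mouse, rat or human liver microsomes in 100 mM phosphate buffer pH 7.4, started with NADPH/MgCl2 and sampled at 0–60 min. Parent remaining quantified by LC-MS. T1/2 and CLint(mic) derived from depletion, scaled to CLint using 45 mg protein/g liver and species liver/body weight ratios.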

The target in the next data set is T1, PLK1 kinase (Homo sapiens, UniProt P53350).
T1 construct: purchased Carnabio (Carna Biosciences) 05-157
The data set can be described thus: Inhibitory activity on PLK1 kinase. The conditions noted are these: for IC50: PLK1 kinase, highest concentration 1 μM, 10 points, read-out: IC50; for Imax: maximum effect caused by the compound at the test concentration. It counts as biochemical. The procedure, abridged: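 TR-FRET kinase assay: PLK1 enzyme premixed with peptide substrate, reaction started by ATP addition and run at 23 °C. Detection reagent then added, 60 min at 23 °C, EnVision read. Compounds tested as 10-point 1:3 series from 1 μM top concentration, duplicate wells; curves fitted.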

The test system of data set [2] is HCT116 cells. In words: In vivo pharmacodynamic study of compound 18 in HCT116 tumor-bearing mice. The conditions noted are these: 60 mg/kg once a day by gavage. Further details: species or system Balb/C Nude mice. On the procedure:
(§1) a. Establishment of tumor-bearing mouse model: HCT116 cells in the logarithmic growth phase were taken and cultured, the cells were collected and counted, and then subcutaneously inoculated into Balb/C Nude mice at 1×10^6/mouse. The tumor volume and body weight of the mice were measured regularly. 7 days after inoculation, mice with tumor volume of 150 mm3 were randomly divided into groups and treated with corresponding drugs.
(§2) 3. Data processing: All data were organized in EXCEL, and One-way ANOVA analysis and drawing were performed using GraphPad Prism 8.0 software. Statistical significance was achieved when p<0.05.
1. Experiment materials: Same as Test example 5.
a. Establishment of tumor-bearing mouse model: Same as Test example 5.
b. […] The administration was performed once a day by gavage for 7 consecutive days, and the tumor volume and body weight of the mice were measured regularly.
3. Data processing: Same as Test example 5.

The test system of data set [3] is HCT116 cells. The data set can be described thus: In vivo pharmacodynamic study of compound 1 in HCT116 tumor-bearing mice. Further details: species or system Balb/C Nude mice. The conditions noted are these: 20 mg/kg once a day by gavage, vs sham group.
Source text: Balb/C Nude mice, SPF grade, male, weighing 18-20 g, were purchased from Jiangsu Gempharmatech Co., Ltd.
HCT116 cells were purchased from ATCC.
Matrigel Matrix, Cat. No. 354248, was purchased from Becton, Dickinson and Company.
Kolliphor® HS 15, Cat. No. 42966, was purchased from Sigma-Aldrich.
as §1
b. […] The administration was performed once a day by gavage for 21 consecutive days, and the tumor volume and body weight of the mice were measured regularly.
as §2

T1 sequence (P53350 whole entry): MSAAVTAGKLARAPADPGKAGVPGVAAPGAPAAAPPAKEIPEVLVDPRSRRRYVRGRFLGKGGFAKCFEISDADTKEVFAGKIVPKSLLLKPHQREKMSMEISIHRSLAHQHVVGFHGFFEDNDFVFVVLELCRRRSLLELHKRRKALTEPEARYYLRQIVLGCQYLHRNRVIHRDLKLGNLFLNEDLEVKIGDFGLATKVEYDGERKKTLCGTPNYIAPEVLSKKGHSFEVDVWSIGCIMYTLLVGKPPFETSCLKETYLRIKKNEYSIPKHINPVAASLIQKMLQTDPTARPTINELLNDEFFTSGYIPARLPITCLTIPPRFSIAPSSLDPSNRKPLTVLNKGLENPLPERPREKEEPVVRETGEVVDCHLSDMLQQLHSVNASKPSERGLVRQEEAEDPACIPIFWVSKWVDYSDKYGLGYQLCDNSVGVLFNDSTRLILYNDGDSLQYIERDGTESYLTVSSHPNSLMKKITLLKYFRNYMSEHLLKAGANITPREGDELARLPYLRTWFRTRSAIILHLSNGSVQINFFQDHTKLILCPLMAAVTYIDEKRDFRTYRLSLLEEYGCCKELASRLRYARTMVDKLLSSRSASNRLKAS

Consider `CN1CCN(c2ccc(OC(F)(F)F)c(Nc3ncc4c(n3)-c3c(c(C(N)=O)cn3CCO)CC4)c2)CC1` [Compound 2], for which, in data set [1], the “60 min remaining amount” value came out at 26.7%, the Clearance rate entry is listed as “Medium”, the CLint scaled at 1 µM amounted to 175 mL/min/kg and the half-life at 1 µM was found to be 31.4 min. Further, the microsomal CLint at 1 µM in data set [1] came out at 44.2 µL/min/mg. Also, at PLK1 kinase, the IC50 is 0.99 nM and the Imax is 99.81%.
Consider `CN1CCN(c2ccc(OC(F)(F)F)c(Nc3ncc4c(n3)-c3c(c(C(N)=O)nn3CCC#N)CC4)c2)CC1` [Compound 4], for which, in data set [1], the “60 min remaining amount” value was found to be 1.33%, the Clearance rate result was “High”, the intrinsic clearance (CLint scaled) at 1 µM turned out to be 1230 mL/min/kg and the half-life at 1 µM stood at 4.47 min. In addition, in data set [1], the microsomal CLint at 1 µM amounted to 310 µL/min/mg. Besides, at PLK1 kinase, the IC50 came to 1.64 nM and the Imax was 99.51%.
Regarding `CN1CCN(c2ccc(OC(F)(F)F)c(Nc3ncc4c(n3)-c3c(c(C(=O)NN)nn3CCO)CC4)c2)CC1` [Compound 13], in data set [1], the “60 min remaining amount” value is on record as 38.6%, the Clearance rate entry was “Medium”, the intrinsic clearance (CLint scaled) at 1 µM is 123 mL/min/kg and the half-life at 1 µM came out at 44.7 min. In addition, in data set [1], the microsomal CLint at 1 µM is 31 µL/min/mg. In addition, at PLK1 kinase, the IC50 turned out to be 2.49 nM and the Imax is 99.41%.
`Cn1nc(C(N)=O)c2ccc3cnc(Nc4cc(N5CCN(CCO)CC5)ccc4OC(F)(F)F)nc3c21` [Compound 16]: in data set [1], the “60 min remaining amount” value was 24.6%, the Clearance rate entry is given as “Medium”, the CLint scaled at 1 µM was 184 mL/min/kg and the half-life at 1 µM came out at 29.9 min. For the same molecule, in data set [1], the microsomal CLint at 1 µM is 46.4 µL/min/mg. Besides, on PLK1 kinase, the IC50 came to 4.77 nM and the Imax is on record as 98.76%.
Turning to `Cn1nc(C(N)=O)c2c1-c1nc(Nc3cc(N4CCN(CCO)CC4)ccc3OC(F)(F)F)ncc1CC2` [Compound 20], in data set [1], the “60 min remaining amount” value is given as 15.9%, the Clearance rate entry is given as “High”, the CLint scaled at 1 µM was 238 mL/min/kg and the half-life at 1 µM is 23.1 min. In addition, the microsomal CLint at 1 µM in data set [1] is 60 µL/min/mg. Also, on PLK1 kinase, the IC50 was found to be 1.28 nM and the Imax is reported as 99.29%.
Regarding `CN1CCN(c2ccc(OCC(F)(F)F)c(Nc3ncc4c(n3)-c3c(c(C(N)=O)nn3CCO)CC4)c2)CC1` [Compound 24], in data set [1], the “60 min remaining amount” value worked out at 58.2%, the Clearance rate result is “Medium”, the CLint scaled at 1 µM was found to be 74.4 mL/min/kg and the half-life at 1 µM stood at 73.7 min. Besides, the microsomal CLint at 1 µM in data set [1] was found to be 18.8 µL/min/mg. At PLK1 kinase, the IC50 amounted to 1.21 nM and the Imax was determined as 99.48%.
`CN1CCN(c2ccc(OC(F)(F)F)c(Nc3ncc4c(n3)-c3c(c(C(N)=O)nn3CCO)CC4)c2)CC1` [Onvansertib, reference compound]: in data set [1], the “60 min remaining amount” value is reported as 21.5%, the Clearance rate result was “Medium”, the CLint scaled at 1 µM was determined as 202 mL/min/kg and the half-life at 1 µM was 27.2 min. Moreover, the microsomal CLint at 1 µM in data set [1] stood at 51 µL/min/mg. For the same molecule, the “body weight decrease compared to before administration” value with HCT116 cells [2] (5 days) was found to be 8.4%. The “body weight decrease compared to before administration” value in the data set with HCT116 cells [2] (7 days) is 19.5%. Also, in the data set with HCT116 cells [2] (7 days, vs control group), the tumor inhibition rate was 62.7%. At PLK1 kinase, this molecule showed an Imax of 100.02%. This molecule displayed a tumor inhibition rate in the data set on HCT116 cells [3] (11 days) of 54.9%. Also, in the data set with HCT116 cells [3] (16 days), the tumor inhibition rate came out at 39.6%. This molecule also showed a tumor inhibition rate in the data set with HCT116 cells [3] (21 days) of 37.0%.

Usually CLint scaled stands for the capacity of the preparation to metabolise the compound, expressed as a volume cleared per time. The low end stands for greater metabolic stability, the high end for faster metabolism. The term half-life denotes the time in which the quantity being followed falls by half. By IC50 is commonly meant the point on the concentration scale where inhibition reaches its midpoint.
